# Earlier results, collected in patent US12594266B2, “Triterpenoid antifungals for the treatment or prevention of Pneumocystis spp. pneumonia” (priority 2019, dated 2026).
# Read-outs that look alike come from different tables or passages of the source. *1 amine or outer side, *2 acyl side, *3 side chain or, on linkers, in order; H or OH if unused. Where a SMILES comes first, the peptide text is derived from it. Bridges are numbered along the chain shown (N, C = ends). [ ]: non-standard residue; d: D form. The star is where a group is joined. hTyr(3S-OH,4S-OH,3'-OSO3H) = N[C@H](C(=O)O)[C@H](O)[C@@H](O)c1ccc(O)c(OS(=O)(=O)O)c1; Orn(4R-OH,5R-OH) = O=C([C@H](C[C@@H](O)[C@@H](O)N[*:3])N[*:1])[*:2]; Pro(3S-OH,4S-Me) = C[C@H]1CN[C@H](C(=O)O)[C@H]1O; X1 = CCCCCOc1ccc(-c2cc(-c3ccc(C(=O)*)cc3)no2)cc1; Gln(3R-OH) = NC(=O)C[C@@H](O)[C@H](N)C(=O)O; Hyp = O=C(O)[C@@H]1C[C@@H](O)CN1
# Columns and labels:
# [1] = total radioactivity, 15 mg/kg oral, male pigmented Long-Evans rats, cited from earlier work
# [2] = tested on: Pneumocystis spp.; conditions: cited from earlier work; for relative effectiveness among echinocandins: murine PCP
smiles,measurement,setting,value
CC(C)[C@@H](C)[C@@]1(C)CC[C@]2(C)[C@H]3CC[C@@H]4[C@@]5(COC[C@]4(C)[C@@H](OC[C@](C)(N)C(C)(C)C)[C@H](n4ncnc4-c4ccncc4)C5)C3=CC[C@@]2(C)[C@@H]1C(=O)O [[^14C]-SCY-078],AUCall,[1]; Adrenal gland,321.126 μg equiv*h/g
same,Tissue:Blood AUC Ratio,[1]; Adrenal gland,48.431
same,AUCall,[1]; Blood (cardiac),6.631 μg equiv*h/g
same,Tissue:Blood AUC Ratio,[1]; Blood (cardiac),1.000
same,AUCall,[1]; Bone marrow (femur),238.388 μg equiv*h/g
same,Tissue:Blood AUC Ratio,[1]; Bone marrow (femur),35.953
same,AUCall,[1]; Bone,9.022 μg equiv*h/g
same,Tissue:Blood AUC Ratio,[1]; Bone,1.361
same,AUCall,[1]; Brain (cerebrum),0.727 μg equiv*h/g
same,Tissue:Blood AUC Ratio,[1]; Brain (cerebrum),0.110
same,AUCall,[1]; Cecum,83.542 μg equiv*h/g
same,Tissue:Blood AUC Ratio,[1]; Cecum,12.600
same,AUCall,[1]; Epididymis,75.355 μg equiv*h/g
same,Tissue:Blood AUC Ratio,[1]; Epididymis,11.365
same,AUCall,[1]; Esophagus,41.430 μg equiv*h/g
same,Tissue:Blood AUC Ratio,[1]; Esophagus,6.248
same,AUCall,[1]; Exorbital gland,523.676 μg equiv*h/g
same,Tissue:Blood AUC Ratio,[1]; Exorbital gland,78.980
same,AUCall,[1]; Eye (lens),0.084 μg equiv*h/g
same,Tissue:Blood AUC Ratio,[1]; Eye (lens),0.013
same,AUCall,[1]; Eye (uvea),777.035 μg equiv*h/g
same,Tissue:Blood AUC Ratio,[1]; Eye (uvea),117.191
same,AUCall,[1]; Heart (myocardium),66.558 μg equiv*h/g
same,Tissue:Blood AUC Ratio,[1]; Heart (myocardium),10.038
same,AUCall,[1]; Kidney (cortex),165.880 μg equiv*h/g
same,Tissue:Blood AUC Ratio,[1]; Kidney (cortex),25.018
same,AUCall,[1]; Kidney (medulla),136.610 μg equiv*h/g
same,Tissue:Blood AUC Ratio,[1]; Kidney (medulla),20.603
same,AUCall,[1]; Large intestine,57.682 μg equiv*h/g
same,Tissue:Blood AUC Ratio,[1]; Large intestine,8.727
same,AUCall,[1]; Liver,374.517 μg equiv*h/g
same,Tissue:Blood AUC Ratio,[1]; Liver,56.484
same,AUCall,[1]; Lung,175.593 μg equiv*h/g
same,Tissue:Blood AUC Ratio,[1]; Lung,26.483
same,AUCall,[1]; Lymph node,251.036 μg equiv*h/g
same,Tissue:Blood AUC Ratio,[1]; Lymph node,37.861
same,AUCall,[1]; Oral mucosa,36.782 μg equiv*h/g
same,Tissue:Blood AUC Ratio,[1]; Oral mucosa,5.547
same,AUCall,[1]; Pancreas,110.455 μg equiv*h/g
same,Tissue:Blood AUC Ratio,[1]; Pancreas,16.659
same,AUCall,[1]; Pituitary,640-809 μg equiv*h/g
same,Tissue:Blood AUC Ratio,[1]; Pituitary,96.645
same,AUCall,[1]; Prostate gland,61.301 μg equiv*h/g
same,Tissue:Blood AUC Ratio,[1]; Prostate gland,9.245
same,AUCall,[1]; Salivary gland,149.193 μg equiv*h/g
same,Tissue:Blood AUC Ratio,[1]; Salivary gland,22.501
same,AUCall,[1]; Seminal vesicle,26.827 μg equiv*h/g
same,Tissue:Blood AUC Ratio,[1]; Seminal vesicle,4.046
same,AUCall,[1]; Skeletal muscle,28.304 μg equiv*h/g
same,Tissue:Blood AUC Ratio,[1]; Skeletal muscle,4.269
same,AUCall,[1]; Skin (non-pigmented),74.884 μg equiv*h/g
same,Tissue:Blood AUC Ratio,[1]; Skin (non-pigmented),11.294
same,AUCall,[1]; Skin (pigmented),110.249 μg equiv*h/g
same,Tissue:Blood AUC Ratio,[1]; Skin (pigmented),16.627
same,AUCall,[1]; Small intestine,141.607 μg equiv*h/g
same,Tissue:Blood AUC Ratio,[1]; Small intestine,21.357
same,AUCall,[1]; Spleen,507.638 μg equiv*h/g
same,Tissue:Blood AUC Ratio,[1]; Spleen,75.561
same,AUCall,[1]; Stomach (gastric mucosa),181.074 μg equiv*h/g
same,Tissue:Blood AUC Ratio,[1]; Stomach (gastric mucosa),27.309
same,AUCall,[1]; Testis,64.972 μg equiv*h/g
same,Tissue:Blood AUC Ratio,[1]; Testis,9.799
same,AUCall,[1]; Thymus,195.608 μg equiv*h/g
same,Tissue:Blood AUC Ratio,[1]; Thymus,29.501
same,AUCall,[1]; Thyroid,291.187 μg equiv*h/g
same,Tissue:Blood AUC Ratio,[1]; Thyroid,43.916
same,AUCall,[1]; Urinary bladder,45.955 μg equiv*h/g
same,Tissue:Blood AUC Ratio,[1]; Urinary bladder,6.931
CC[C@H](C)C[C@H](C)CCCCCCCCC(=O)N[C@H]1C[C@@H](O)[C@@H](NCCN)NC(=O)[C@@H]2[C@@H](O)CCN2C(=O)[C@H]([C@H](O)CCN)NC(=O)[C@H]([C@H](O)[C@@H](O)c2ccc(O)cc2)NC(=O)[C@@H]2C[C@@H](O)CN2C(=O)[C@H]([C@@H](C)O)NC1=O [caspofungin],relative effectiveness among echinocandins,[2],most effective
"CCCCCOc1ccc(-c2cc(-c3ccc(C(=O)N[C@H]4C[C@@H](O)[C@@H](O)NC(=O)[C@@H]5[C@@H](O)[C@@H](C)CN5C(=O)[C@H]([C@H](O)CC(N)=O)NC(=O)[C@H]([C@H](O)[C@@H](O)c5ccc(O)c(OS(=O)(=O)O)c5)NC(=O)[C@@H]5C[C@@H](O)CN5C(=O)[C@H]([C@@H](C)O)NC4=O)cc3)no2)cc1 [micafungin] (X1-[Orn(4R-OH,5R-OH)]T[Hyp][hTyr(3S-OH,4S-OH,3'-OSO3H)][Gln(3R-OH)][Pro(3S-OH,4S-Me)]; lactam 1-C)",trophic burden versus untreated control mice,"[2]; any dose, intraperitoneal, 3 weeks",no significant reduction
same,relative effectiveness among echinocandins,[2],least effective
